Results taken from ChEMBL document CHEMBL3507680, “University of Dundee, Gates Library screen for HepG2 cell viability”.

experiment: Human HepG2 cell viability assay in 384 well format; assay type: toxicity, cell-based; set-up: dose 125 nL, time 70.5 hour; cytotoxicity at 70.5 h: concentration not given beside the values; details: HepG2 cells, read-out: Inhibition

Row | SMILES | cytotoxicity at 70.5 h
1 | Cn1cc(-c2ncnc3c2CCN(C(=O)N2CCOCC2)CC3)cn1 | -5.18%
2 | COCC(=O)N1CCN(C(=O)NC(C)C)CC2(CC(=O)N(C)C2)C1 (centres undefined) | 9.18%
3 | O=C1[C@@H]2CN(Cc3cc4ccccc4o3)C[C@]2(C(=O)O)CN1CC1CC1 | -4.85%
4 | CC(=O)N1CCC1c1nc(-c2ccc(C)s2)no1 (centres undefined) | 23.5%
5 | CC(C)C(=O)N1CCCC2(C1)CN(c1nncs1)CCO2 (centres undefined) | -2.65%
6 | COCCN1C(=O)CC[C@]12CC[C@@H](NC(=O)c1cnccn1)CC2 | -2.82%
7 | Cc1nc(C2(NC(=O)NCc3cc(C#N)ccc3F)CCCC2)no1 | -10.1%
8 | Cc1noc(C)c1Cc1nc(C2CC2)no1 | -2.18%
9 | COc1ccc(N(C)Cc2nc3c(cnn3C)c(=O)[nH]2)cc1OC | 0.734%
10 | CN(C)C(=O)Cn1c2c(ccc1=O)CC(NCc1cccnc1)CC2 (centres undefined) | -10.4%
11 | O=C1COc2ccc(S(=O)(=O)NCCC3=CCCCC3)cc2N1 | 0.831%
12 | Cc1cn2nc(N3CCCC3Cn3cccn3)sc2n1 (centres undefined) | -4.17%
13 | CC1CN=C(N2CCN(C(=O)Nc3nc(-c4ccccc4)ns3)CC2)S1 (centres undefined) | 9.01%
14 | CC(C)CNC(=O)c1c(-n2cnnn2)sc2c1CCC2 | -13.7%
15 | O=C1CC(N(C(=O)c2ccc3c(c2)CCC3)C2CC2)C(=O)N1 (centres undefined) | 33.4%
16 | O=C(CN1CCOC(CNc2cccnn2)C1)N1CCCCC1 (centres undefined) | -6.36%
17 | Cc1cnn(C2CN(CCCOc3ccc(C#N)cc3)C2)c1 | -2.39%
18 | COC(=O)c1cc2n(n1)CCN(C(=O)c1csc(CN(C)C)n1)C2 | -12.3%
19 | CN(C)CC(=O)N1CCc2onc(Cn3cccn3)c2C1 | -9.72%
20 | Nc1nc2c(c(=O)[nH]1)CCN(C(=O)c1cccc3nccnc13)C2 | -13.2%
21 | N#CC1CCN(C(=O)CN2CC(c3ccccc3)CC2=O)CC1 (centres undefined) | -4.6%
22 | O=C(NCCN1CCCCC1)c1ccn(-c2ccccc2)n1 | 24.7%
23 | COc1cccc(-c2cc(C(=O)NCCCn3cnnc3)[nH]n2)c1 | -11.1%

Row | SMILES | cytotoxicity at 70.5 h
24 | Cc1cnn(CC2CCCCN2C(=O)c2ccc3[nH]nnc3c2)c1 (centres undefined) | -11.6%
25 | c1ccc(CN2CCc3ncnc(-c4ccncc4)c3CC2)nc1 | 22.4%
26 | NC(=O)c1cccc(CCNCc2cccs2)c1 | -3.84%
27 | C[C@@H](O)[C@H](NC(=O)c1csc2nc(-c3ccccc3F)cn12)C(N)=O | 2.4%
28 | COc1cccc(-n2c(C)cc(C(=O)O)c2C)c1 | -5.75%
29 | COCCN1CC(C(=O)NCc2ccnc(-n3cccn3)c2)CC1=O (centres undefined) | -6.88%
30 | CCc1cc(N(C)Cc2noc(C(C)C)n2)nc(N2CCOCC2)n1 | -13.5%
31 | CC(C)(C)c1nc(CN2CCC3(CCCO3)CCC2=O)no1 (centres undefined) | -5.98%
32 | CC(C)c1ccc(OCC(=O)NS(=O)(=O)c2cccnc2)cc1 | -0.457%
33 | Cc1nn(CCC#N)c(C)c1CCC(=O)N(C(C)C)C1CC1 | -10.9%
34 | CC(c1ccccc1)N1CCC(NC(=O)CCc2ccsc2)CC1 (centres undefined) | -7.82%
35 | COCCC1(C(=O)O)CCCN(CCOCc2ccccc2)C1 (centres undefined) | -3.38%
36 | Cc1nc2ccccc2n1Cc1cc(C(=O)NC2CCOC2)no1 (centres undefined) | -18.8%
37 | COc1ccc(S(=O)(=O)NC(=O)COc2ccc3c(c2)CCC3)cc1 | 17.6%
38 | COc1ccc(C2CCN(C(=O)c3ncccc3OC(C)C)C2)cc1 (centres undefined) | 11.5%
39 | COc1ccc2c(c1)CN(CC(=O)NC1CCCC1)CC2 | -12.6%
40 | c1cnc(-c2noc(C3CN(Cc4ccc5c(c4)CCO5)C3)n2)cn1 | -9.18%
41 | CC[C@H]1N(C)CCC[C@]12CCC(=O)N2Cc1ccncc1 | 10.9%
42 | COc1cccc(-c2nc(C)c(C(=O)N[C@@H](C)C(=O)O)s2)c1 | 4.53%
43 | CCc1nc(CC(=O)NC(C#N)CC)cs1 (centres undefined) | -0.988%
44 | c1cc(CN2CCC3(CC2)COC(COCC2CC2)C3)ccn1 (centres undefined) | -16.7%
45 | COCC(=O)N1CCCn2c(CN3CCCC3=O)nnc2C1 | -8.38%
46 | O=C(CCc1ccccn1)N1CCCC(N2CCNC2=O)C1 (centres undefined) | -14.8%

Row | SMILES | cytotoxicity at 70.5 h
47 | O=C1COC2(COCCN(c3cnccn3)C2)CN1c1cccc(F)c1 (centres undefined) | -6.69%
48 | COCc1nc(N(C)C)ncc1C(=O)Nc1cc(C)cc(C)c1 | -6.56%
49 | Cc1ccc(NC(=O)NC(C)c2nc[nH]n2)cc1 (centres undefined) | -5.24%
50 | CN(Cc1ccco1)C(=O)NCc1nnc2n1CCC2 | -8.06%
51 | COc1ccc(C(O)CNC(=O)NCCc2csc(C)n2)cc1 (centres undefined) | -4.45%
52 | Cc1ccc(C(=O)NCC(O)CN2CCCC2=O)cc1Cl (centres undefined) | 6.85%
53 | Cc1nc(N(C)C)nc(C)c1NS(=O)(=O)c1ccccc1Cl | -8.77%
54 | Cc1ccc(C2=CCN(C(=O)C3CCN(C)C(=O)C3)CC2)cc1 (centres undefined) | -6.32%
55 | CSc1nnc(C2CCN(C(=O)N3CCCC3)CC2)n1C(C)C | 2.59%
56 | Cc1ccccc1C1(C(=O)NCCN(C(C)C)C(C)C)CCOCC1 | -10%
57 | Cc1cc(C)n(CC2CCCCN2CC(=O)Nc2cccnc2)n1 (centres undefined) | 17.8%
58 | O=C(c1ccco1)N1CCn2cc(CN3CCCC3)nc2C1 | -1.74%
59 | CCCc1nc(C)c(C(=O)NCC2CCN(C3CC3)C2)s1 (centres undefined) | 23.6%
60 | Cc1ncc(CN2CCc3c(nc4cc(C5CC5)nn4c3O)C2)n1C | -2.73%
61 | CN(CCN1CCN(c2ccccc2)CC1)C(=O)Nc1ccncc1 | -3.63%
62 | Cc1ccc(CC(=O)N2CCOC(c3nc(C)n[nH]3)C2)cn1 (centres undefined) | -4.16%
63 | CC(C)c1noc(CCC(=O)NCC2CCOC2)n1 (centres undefined) | -2.41%
64 | CC(C)c1noc(CN(Cc2cccnc2)C2CN3CCC2CC3)n1 (centres undefined) | 52.5%
65 | Cc1ncsc1CCNC(=O)Cn1nc(C)n(Cc2ccccc2)c1=O | -2.97%
66 | Cn1ncc2c(NCC3CCS(=O)(=O)C3)nc(C3CCCC3)nc21 (centres undefined) | -3.73%
67 | COCc1ccccc1C(=O)N(C)Cc1ncc(C)c(OC)c1C | 19.4%
68 | CNC(=O)CN1CC[C@H]2CN(C(=O)c3cccc(C)c3)C[C@H]2C1 | -2.46%
69 | Cc1cnc(N2CCCC3(CCN(Cc4csc(C)n4)C3=O)C2)nc1 (centres undefined) | 3.6%

Row | SMILES | cytotoxicity at 70.5 h
70 | CNS(=O)(=O)c1cccc(C(C)NCc2cccc(C)c2C)c1 (centres undefined) | -12.2%
71 | CC(C)CC(=O)N1CCN(c2cc(N(C)C)cnn2)CC1 | -3.64%
72 | Cn1cc(S(=O)(=O)NC(CO)Cc2c[nH]c3ccccc23)cn1 (centres undefined) | -7.44%
73 | COc1cc(N2CCN(CC3CC3)c3nc(C)ccc3C2)ncn1 | 0.313%
74 | Cc1cc(C(=O)N2CCC(N3CCNC3=O)CC2)nn1C(C)(C)C | -16.5%
75 | Clc1cnc(NCc2ccccc2N2CCOCC2)nc1 | -14.4%
76 | CS(=O)(=O)NC1CCN(C(=O)c2coc(CN3CCOCC3)c2)CC1 | -2.89%
77 | Cc1ccnc(NC(=O)c2ccc(Cl)o2)c1 | -9.97%
78 | Cc1csc(C2CCCCN2C(=O)CN(C)C2CC2)n1 (centres undefined) | -8.97%
79 | CC(C)C(O)C(=O)N1CCC2(CC1)c1nc[nH]c1CCN2S(C)(=O)=O (centres undefined) | -6.39%
80 | COc1cc(CNCc2c(C)nn(C)c2N(C)C)ccc1C | -3.16%
81 | Cc1ccc(O)c(C(=O)N2CCOCC2c2c(C)nn(C)c2C)c1 (centres undefined) | -2.1%
82 | COCc1noc(-c2ccc(N(C)Cc3cc(C)no3)nc2)n1 | -6.05%
83 | CCS(=O)(=O)c1ccc2oc([C@H]3CCN(Cc4ccccc4)C3)nc2c1 | 2.59%
84 | Cc1nnc(C2CCN(C(=O)c3ccc(-n4cccc4)cc3)CC2)s1 | 28%
85 | CC(CN1CCOCC1)OC(=O)c1cccc2cn[nH]c12 (centres undefined) | 12%
86 | Cn1ccnc1C1c2nc[nH]c2CCN1Cc1cccnc1 (centres undefined) | -5.94%
87 | O=C(c1ccco1)N1C[C@H]2CCCN(Cc3ccc(F)cc3)[C@H]2C1 | -9.54%
88 | CCN1CCCCC1C(=O)N1CCC(OC2CCCC2)CC1 (centres undefined) | 6.41%
89 | O=C(Cc1ccsc1)NCC1Cn2nnc(-c3ccoc3)c2CO1 (centres undefined) | -4.44%
90 | CCOc1ccccc1Nc1nc2c(C)nn(C)c2c(=O)n1C | 8.71%
91 | COc1cccc(N2CCN(C(=O)C(C)Oc3ccccc3)CC2=O)c1 (centres undefined) | 20.9%
92 | CC(C)C(=O)NS(=O)(=O)c1ccc(F)c(C(F)(F)F)c1 | -10.6%

Row | SMILES | cytotoxicity at 70.5 h
93 | O=C(c1ccsc1)N1CC[C@H]2C[C@@H](c3nnc(C4CC4)o3)O[C@@H]2C1 | -12.7%
94 | c1ccc(C2CCCN2C2CCSCC2)nc1 (centres undefined) | 0.0849%
95 | Cc1c(CN2Cc3nccn3CC2c2ccccc2)cnn1C (centres undefined) | -4.09%
96 | O=C(c1ccc(-n2ccnc2)nn1)N1CCCCC1Cn1cccn1 (centres undefined) | -5.22%
97 | CCN(Cc1cccc(F)c1)Cc1nc2c(cnn2C)c(=O)[nH]1 | 14.7%
98 | COc1ccc(C(=O)N2CCN(C(=O)Cn3nccc3C)CC2)cc1 | 1.46%
99 | Cc1cccc(C2CCCCCN2C(=O)c2cn(CC(N)=O)nn2)c1 (centres undefined) | -6.65%
100 | CN(C)c1ccnc(C2CCCN2)n1 (centres undefined) | -3.83%
101 | CCc1nc(C)c(C(=O)NCCN2CCN(C(C)=O)CC2)s1 | -7.15%
102 | CN(C)C(=O)CCNC(=O)NCc1ccc(Br)cc1Cl | 17.2%
103 | COCCNc1nnc(-c2cnc(C)cn2)s1 | -3.71%
104 | COC(=O)c1ccc(C2CC(=O)Nc3c2cnn3C)cc1 (centres undefined) | 3.26%
105 | CCO[C@H]1CN(C)C[C@@H]1NC(=O)c1c[nH]nc1C1CCCCC1 | 21.2%
106 | COc1ccnc(N2CCCN(Cc3ncc(C(C)C)o3)CC2)n1 | -4.8%
107 | O=C(C1CNCCN1C(=O)CCOc1ccccc1)N1CCOCC1 (centres undefined) | 4.76%
108 | Cc1ncc(CN2CCOCC2)c2cc(C(=O)c3ccc(Br)cc3)oc12 | -13.8%
109 | O=C(NCC1CCCO1)c1nc2c(s1)CCCN2CC1CC1 (centres undefined) | -2.36%
110 | O=C(C1CCOC1)N1C[C@@H]2CCN(C(=O)c3cscn3)[C@@H]2C1 (some centres undefined) | 14%
111 | Cc1ccc(OCC(O)Cn2ncc3cnn(C)c(=O)c32)cc1 (centres undefined) | -6.88%
112 | Cc1cccc(CN2CCc3nnc(CN4CCCCC4)n3CC2)n1 | -5.9%
113 | COCc1cccc(NC(=O)NCc2ncc(C)c(OC)c2C)c1 | 0.253%
114 | FC(F)CN1CCC(NCCc2ccc(-n3cccn3)cc2)CC1 | -5.54%
